Laboratory results as given in patent US20230002505A1, “TREATMENT OF THERAPY-RESISTANT HER-2 POSITIVE BREAST CANCER” (OREGON HEALTH & SCIENCE UNIVERSITY, priority 2017, published 2023).

Columns and labels:
Type in all cases: cell-based, human
HCC-1954 cells = assay: In vitro proliferation of parental HCC-1954 cells after panitumumab treatment; details: parental HCC-1954, HER-2 positive, trastuzumab and lapatinib resistant; blocking HER-1 function
JimT1 cells = assay: In vitro proliferation of parental JimT1 cells after panitumumab treatment; details: parental JimT1, HER-2 positive, trastuzumab and lapatinib resistant; blocking HER-1 function
21MT1 cells = assay: In vitro proliferation of parental 21MT1 cells after panitumumab treatment; details: parental 21MT1, HER-2 positive, trastuzumab and lapatinib resistant; blocking HER-1 function

Measured: proliferation in vitro

Panitumumab
decreased proliferation: all assays above
